Counter-ions that a name gives are not always drawn. One block for each compound: values may come before it.
What was measured:
[1] = Determination of surface tension; type: physicochemical; details: 0.25% solution of the salt, Ring method, 25° C.
Procedure: (§1) (6) Emulsification test and determination of surface tention
As the structure of the compounds of the present invention is comparatively, similar to Amisoft, HS-11, a sort of Amisoft, which is mixture of 70% of N-stearoyl-L-glutamic acid monosodium salt and 30% of N-palmitoyl-L-glutamic acid monosodium salt was selected for the tests. The surface activity and the surface tension of the said HS-11 and the compounds of the present invention were measured and determined respectively, and those comparative results were shown in Table VII.
(2) Determination of surface tension
The 0.25% solution of the salt of each compound was determined by Ring method at 25° C.

[2] = Emulsification test; type: physicochemical; details: 10 ml of 0.25% solution of the salt + 10 ml toluene, 40° C., 15 minutes standing
Procedure: as §1
They were emulsified in the test tube by turning it upside down repeatedly for 30 times at 40° C. and were allowed to stand for 15 minutes. After the standing the separated volume of aqueous layer was measured.

[3] = test system: lung fragment of guinea pig; assay: Mediator (histamine) release on lung fragment of guinea pig; type: cell-based, guinea pig (Hartley strain); details: 10^-4 g/ml
Procedure: (4) Mediator release on lung fragment of guinea pig.
A group of Hartley strain male guinea pigs (body weight 250-300 g) were administered intraperitoneally anti-BPO-BGG IgE serum. The animals were sacrificed by decapitation, and those sensitized lungs were isolated for use. […] Following 10 minute incubation, the amount of the released histamine were determined by bioassay.

[4] = test system: passive cutaneous anaphylaxis in rat; assay: Homologeous passive cutaneous anaphylaxis in rat; type: in vivo, rat (Wistar strain); details: orally, exuded pigment vs control
Procedure: (2) Homologeous passive cutaneous anaphylaxis in rat Each test compound suspended in 0.5% tragacanth gum-distilled water was administered orally to a group of five male Wistar strain rats (body weight 150-200 g). After one hour 0.1 ml of 5% anti-Dinitrophinol conpled Ascaris rat IgE serum-physiological sodium chloride solution was injected intradermally to dorsum of the rat. […] The animals were sacrificed by decapitation 30 minutes after the injection. Thereafter the skin of the animals were removed and the amount of the pigment exuded into the inflamed skin was determined. The percent inhibitions were calculated by the ratio of the amounts of exuded pigments to the control.

[5] = test system: Picryl Chloride induced contact dermatitis; assay: Picryl Chloride induced contact dermatitis; type: in vivo, mouse (ddY strain); details: Mus musculus, po; for inhibition in vivo at 100 mg/kg: orally, ear swelling 24 hours after second challenge
Procedure: (3) Picryl Chloride induced contact dermatitis
At first 0.1 ml of 7% picryl chloride-ethanol solution was applied to skin of the depilated abdomens (area 2.5×15 mm) of ddY-strain male mice (body weight 20-22 g). After one week each 0.02 ml of 1% picryl chloride-olive oil solution was applied topically to the ears of the mouse. […] After three days 0.1 ml of 7% picryl chloride-ethanol solution was applied again to the depilated abdomens of the mice. After one week, each 0.02 ml of 1% picryl chloride-olive oil solution per ear were applied topically to the bilateral ears, and at same time, the test compounds were administered orally. Immediately before and 24 hours after the second challenge, the thickness of the ears was measured and the swelling was calculated. The percent inhibitions were calculated by the ratio of the each swelling to the control.

[6] = Acute toxicity (rat); details: in vivo, po
Procedure: Each test compound suspended in 0.5% tragacanth gum-saline was administered orally, subcutaneously or intraperitoneally to animals ddY strain mouse and Wistar strain rats. The 50% lethal dose and the 95% confidence limit were calculated by Litchfield-Wilcoxon's method from the death of animals in 3 weeks following administration.

[7] = test system: rat adjuvant polyarthritis; assay: Effect on rat adjuvant polyarthritis; type: in vivo, rat (Sprague Dawley strain); details: oral daily: Compound No. 1 200 mg/kg, Ibuprofen 50 mg/kg, Prednisolone 0.5 mg/kg
Procedure: (5) Effect on rat adjuvant polyarthritis
A group of eight to ten male Sprague Dawley strain rats (body weight 240-280 g) were used. 0.1 ml of Complete Freuind's adjuvant (CFA, Mycobacterium butyricum, 100 mg/10 cc) was injected intradermally to the right hind sole.

SMILES: CC(C)CCC[C@H]1CC[C@@](C)(C(=O)NCC(=O)O)CC1 [Compound No. 2 (potassium salt)]
Surface tension γ [1]: 39.5 dyn/cm
Separated volume of aqueous layer [2]: 9.5 mL

SMILES: CC(C)CCC[C@H]1CC[C@@](C)(C(=O)NCC(=O)O)CC1 [Compound No. 2, N-(cis-4-isohexyl-1-methylcyclohexanecarbonyl)-glycine]
inhibition (released histamine) [3]: 73.0%
Inhibition ([4]; 100 mg/kg): 46%
inhibition in vivo at 100 mg/kg [5]: 41%
LD50 at 504 h ([6]; female rat): ~10300 mg/kg
LD50 at 504 h ([6]; male rat): ~11000 mg/kg

Surface tension γ [1]: 44.5 dyn/cm
Separated volume of aqueous layer [2]: 7.3 mL
SMILES: CCC(NC(=O)[C@]1(C)CC[C@H](CCCC(C)C)CC1)C(=O)O (stereo partly drawn) [Compound No. 12 (potassium salt)]

SMILES: CCC(NC(=O)[C@]1(C)CC[C@H](CCCC(C)C)CC1)C(=O)O (stereo partly drawn) [Compound No. 12]
inhibition in vivo at 100 mg/kg [5]: 27%

Surface tension γ [1]: 42.3 dyn/cm
Separated volume of aqueous layer [2]: 9.3 mL
SMILES: CC(C)CCC[C@H]1CC[C@@](C)(C(=O)N[C@@H](CCC(=O)O)C(=O)O)CC1 [Compound No. 15 (monosodium salt)]

Surface tension γ [1]: 42.3 dyn/cm
Separated volume of aqueous layer [2]: 9.5 mL
SMILES: CSCC[C@H](NC(=O)[C@]1(C)CC[C@H](CCCC(C)C)CC1)C(=O)O [Compound No. 17 (triethanolamine salt)]

SMILES: CSCC[C@H](NC(=O)[C@]1(C)CC[C@H](CCCC(C)C)CC1)C(=O)O [Compound No. 17]
inhibition in vivo at 100 mg/kg [5]: 50%

Surface tension γ [1]: 38.8 dyn/cm
Separated volume of aqueous layer [2]: 9.5 mL
SMILES: CC(C)CCC[C@H]1CC[C@H](C(=O)NCCCCCC(=O)O)CC1 [Compound No. 42 (sodium salt)]

SMILES: CC1(C)[C@@H](O[C@H]2O[C@H](C(=O)O)[C@@H](O)[C@H](O)[C@H]2O[C@@H]2O[C@H](C(=O)O)[C@@H](O)[C@H](O)[C@H]2O)CC[C@]2(C)[C@H]3C(=O)C=C4[C@@H]5C[C@@](C)(C(=O)O)CC[C@]5(C)CC[C@@]4(C)[C@]3(C)CC[C@@H]12 [Glycyrrhizin, reference compound]
inhibition (released histamine) [3]: 8.0%
Inhibition ([4]; 100 mg/kg): 22%

SMILES: CC(C)Cc1ccc(C(C)C(=O)O)cc1 (stereo not drawn) [Ibuprofen]
Swelling percent of left hind paw (non-treatment of CFA) ([7]; day 0): -1.7±1.3%
Swelling percent of right hind paw (treatment of CFA) ([7]; day 0): 118.6± 5.7%
Swelling percent of left hind paw (non-treatment of CFA) ([7]; day 1): -2.4±1.0%
Swelling percent of right hind paw (treatment of CFA) ([7]; day 1): 98.1± 6.1%
Swelling percent of left hind paw (non-treatment of CFA) ([7]; day 4): -2.3±1.5%
Swelling percent of right hind paw (treatment of CFA) ([7]; day 4): 204.7±11.6%
Swelling percent of left hind paw (non-treatment of CFA) ([7]; day 7): 1.5±1.8%
Swelling percent of right hind paw (treatment of CFA) ([7]; day 7): 181.7±14.8%
Swelling percent of left hind paw (non-treatment of CFA) ([7]; day 10): 7.4±1.8%
Swelling percent of left hind paw (non-treatment of CFA) ([7]; day 14): 12.5±1.5%
Swelling percent of left hind paw (non-treatment of CFA) ([7]; day 17): 8.5±1.5%
Swelling percent of left hind paw (non-treatment of CFA) ([7]; day 21): 8.5±2.0%
Swelling percent of right hind paw (treatment of CFA) ([7]; day 21): 138.5±12.6%

SMILES: C[C@]12C=CC(=O)C=C1CC[C@@H]1[C@@H]2[C@@H](O)C[C@@]2(C)[C@H]1CC[C@]2(O)C(=O)CO [Prednisolone]
inhibition (released histamine) [3]: 4.0%
Inhibition ([4]; 5 mg/kg): 42%
Swelling percent of left hind paw (non-treatment of CFA) ([7]; day 0): -1.1±1.0%
Swelling percent of right hind paw (treatment of CFA) ([7]; day 0): 118.4± 6.0%
Swelling percent of left hind paw (non-treatment of CFA) ([7]; day 1): -1.0±1.0%
Swelling percent of right hind paw (treatment of CFA) ([7]; day 1): 97.3± 6.5%
Swelling percent of left hind paw (non-treatment of CFA) ([7]; day 4): -1.7±1.1%
Swelling percent of right hind paw (treatment of CFA) ([7]; day 4): 232.7±17.8%
Swelling percent of left hind paw (non-treatment of CFA) ([7]; day 7): 5.7±1.9%
Swelling percent of right hind paw (treatment of CFA) ([7]; day 7): 200.3±22.5%
Swelling percent of left hind paw (non-treatment of CFA) ([7]; day 10): 4.5±2.9%
Swelling percent of right hind paw (treatment of CFA) ([7]; day 10): 167.2±19.0%
Swelling percent of left hind paw (non-treatment of CFA) ([7]; day 14): 12.5±2.4%
Swelling percent of right hind paw (treatment of CFA) ([7]; day 14): 175.0±18.6%
Swelling percent of left hind paw (non-treatment of CFA) ([7]; day 17): 9.8±1.4%
Swelling percent of right hind paw (treatment of CFA) ([7]; day 17): 174.2±18.6%
Swelling percent of left hind paw (non-treatment of CFA) ([7]; day 21): 7.1±1.5%
Swelling percent of right hind paw (treatment of CFA) ([7]; day 21): 173.0±23.7%
inhibition in vivo at 5 mg/kg ([5]; 24 h, read-out: Inhibition): 32%

SMILES: CC(C)CCC[C@H]1CC[C@@](C)(C(=O)NCCCCCC(=O)O)CC1 [compound 3, N-(cis-4-isohexyl-1-methylcyclohexanecarbonyl)-ε-aminocaproic acid]
inhibition in vivo at 100 mg/kg [5]: 45%

SMILES: CC(C)CCC[C@H]1CC[C@@](C)(C(=O)N[C@@H](C)C(=O)O)CC1 [compound 5]
inhibition in vivo at 100 mg/kg [5]: 32%

SMILES: CC(C)CCC[C@H]1CC[C@@](C)(C(=O)NCCC(=O)O)CC1 [compound 6, N-(cis-4-isohexyl-1-methylcyclohexanecarbonyl)-β-alanine]
inhibition in vivo at 100 mg/kg [5]: 10%

SMILES: CC[C@H](C)[C@H](NC(=O)[C@]1(C)CC[C@H](CCCC(C)C)CC1)C(=O)O [compound 8]
inhibition in vivo at 100 mg/kg [5]: 41%

SMILES: CCCC(NC(=O)[C@]1(C)CC[C@H](CCCC(C)C)CC1)C(=O)O (stereo partly drawn) [compound 9]
inhibition in vivo at 100 mg/kg [5]: 47%

SMILES: CC(C)CCC[C@H]1CC[C@@](C)(C(=O)N[C@H](C(=O)O)C(C)C)CC1 [compound 10]
inhibition in vivo at 100 mg/kg [5]: 9%

SMILES: CCCCC(NC(=O)[C@]1(C)CC[C@H](CCCC(C)C)CC1)C(=O)O (stereo partly drawn) [compound 11]
inhibition in vivo at 100 mg/kg [5]: 37%

SMILES: CC(C)CCC[C@H]1CC[C@@](C)(C(=O)NCCCC(=O)O)CC1 [compound 13]
inhibition in vivo at 100 mg/kg [5]: 40%

SMILES: CC(C)CCC[C@H]1CC[C@@](C)(C(=O)N[C@@H](CCC(N)=O)C(=O)O)CC1 [compound 14]
inhibition in vivo at 100 mg/kg [5]: 7%

SMILES: CC(C)CCC[C@H]1CC[C@@](C)(C(=O)N[C@@H](CS)C(=O)O)CC1 [compound 18]
inhibition in vivo at 100 mg/kg [5]: 27%

SMILES: CC(C)CCC[C@H]1CC[C@](C)(C(=O)O)CC1 [compound 20, trans-4-isohexyl-1-methylcyclohexanecarboxylic acid]
inhibition in vivo at 100 mg/kg [5]: 44%

SMILES: CC(C)CCC[C@H]1CC[C@](C)(C(=O)NCC(=O)O)CC1 [compound 21, N-(trans-4-isohexyl-1-methylcyclohexanecarbonyl)-glycine]
inhibition in vivo at 100 mg/kg [5]: 53%

Source: patent US4228304A, “Novel cyclohexanecarboxylic acid and its derivatives” (Hisamitsu Pharmaceutical Co. Inc., priority 1977, dated 1980)
